Test results taken from patent US8735406B2, “8-oxodihydropurine derivative” (Dainippon Sumitomo Pharma Co., Ltd., priority 2009, dated 2014).

Biological target: T1, FAAH (Rattus norvegicus, UniProt P97612)
T1 construct: Preparation of Rat Brain Membranes Preparations (FAAH Enzyme Solution); from tissue; host or cells: rat cerebrum (brain membrane preparation)
T1 sequence (P97612 1-579): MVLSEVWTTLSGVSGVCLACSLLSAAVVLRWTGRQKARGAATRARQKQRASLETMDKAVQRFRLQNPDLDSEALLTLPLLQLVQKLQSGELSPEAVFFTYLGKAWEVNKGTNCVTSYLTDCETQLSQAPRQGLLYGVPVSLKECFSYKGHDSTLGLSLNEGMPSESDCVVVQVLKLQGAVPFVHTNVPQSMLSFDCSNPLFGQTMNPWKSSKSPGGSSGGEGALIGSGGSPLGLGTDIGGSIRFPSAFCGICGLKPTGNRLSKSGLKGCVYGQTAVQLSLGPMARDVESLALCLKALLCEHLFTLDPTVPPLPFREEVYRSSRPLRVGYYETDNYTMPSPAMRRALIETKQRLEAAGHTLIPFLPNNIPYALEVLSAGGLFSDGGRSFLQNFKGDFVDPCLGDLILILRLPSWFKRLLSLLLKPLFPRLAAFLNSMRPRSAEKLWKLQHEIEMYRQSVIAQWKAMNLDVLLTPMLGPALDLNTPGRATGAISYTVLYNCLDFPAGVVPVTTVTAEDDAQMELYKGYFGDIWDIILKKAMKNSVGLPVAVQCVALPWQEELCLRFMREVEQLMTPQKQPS
Assay: Determination of FAAH inhibitory activity in rat (rat brain membrane preparations, [3H]-anandamide hydrolysis)
Format: biochemical
Details: rat brain membrane preparations; for inhibition at 0.1 µM: at 100 nM, read-out: FAAH Inhibition Inhibition Rate at 100 nM; for IC50: read-out: FAAH Inhibition IC50
Method in brief: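 Compounds tested from 0.1 nM to 1 μM to derive IC50 against FAAH hydrolysis in rat brain membrane preparations (100 μg/mL). A 10-min 37 °C preincubation was followed by 10 min with [3H]-anandamide (2 nM) mixed with 2 μM unlabelled anandamide. Radioactive ethanolamine was extracted into the water/methanol layer and counted.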

| inhibition at 0.1 µM | IC50 | Compound |
| --- | --- | --- |
| 89% | 9 nM | CN(C)C(=O)n1c(=O)n(C)c2cnc(CCOc3cccc(C(F)(F)F)c3)nc21 [compound 642] |
| 60% | 31 nM | CN(C)C(=O)n1c(=O)n(C)c2cnc(Cc3ccccc3Cl)nc21 [compound 652] |
| 108% | 11 nM | CN(C)C(=O)n1c(=O)n(C)c2cnc(Cc3ccc(Cl)cc3)nc21 [compound 653] |
| 88% | 24 nM | COCc1ncc2c(n1)n(C1CC1)c(=O)n2C(=O)N1CC(c2ccccc2)C1 [compound 663] |
| 102% | 10 nM | COCc1ncc2c(n1)n(C1CC1)c(=O)n2C(=O)N1CC(c2ccc(F)cc2)C1 [compound 664] |
| 99% | 7 nM | COCc1ncc2c(n1)n(C1CC1)c(=O)n2C(=O)N1CC(c2cccc(F)c2)C1 [compound 665] |
